Measurements taken from PMC7999182, “Interaction of Remdesivir with Clinically Relevant Hepatic Drug Uptake Transporters” (Pharmaceutics, 2021).

Columns and labels:
OATP1B3 = biological target: T1, OATP1B3 (Homo sapiens, UniProt Q9NPD5); test: Inhibition of OATP1B3-mediated estradiol glucuronide uptake; format: cell-based
T1 construct: expressed in transfected cells
T1 sequence (Q9NPD5 1-702): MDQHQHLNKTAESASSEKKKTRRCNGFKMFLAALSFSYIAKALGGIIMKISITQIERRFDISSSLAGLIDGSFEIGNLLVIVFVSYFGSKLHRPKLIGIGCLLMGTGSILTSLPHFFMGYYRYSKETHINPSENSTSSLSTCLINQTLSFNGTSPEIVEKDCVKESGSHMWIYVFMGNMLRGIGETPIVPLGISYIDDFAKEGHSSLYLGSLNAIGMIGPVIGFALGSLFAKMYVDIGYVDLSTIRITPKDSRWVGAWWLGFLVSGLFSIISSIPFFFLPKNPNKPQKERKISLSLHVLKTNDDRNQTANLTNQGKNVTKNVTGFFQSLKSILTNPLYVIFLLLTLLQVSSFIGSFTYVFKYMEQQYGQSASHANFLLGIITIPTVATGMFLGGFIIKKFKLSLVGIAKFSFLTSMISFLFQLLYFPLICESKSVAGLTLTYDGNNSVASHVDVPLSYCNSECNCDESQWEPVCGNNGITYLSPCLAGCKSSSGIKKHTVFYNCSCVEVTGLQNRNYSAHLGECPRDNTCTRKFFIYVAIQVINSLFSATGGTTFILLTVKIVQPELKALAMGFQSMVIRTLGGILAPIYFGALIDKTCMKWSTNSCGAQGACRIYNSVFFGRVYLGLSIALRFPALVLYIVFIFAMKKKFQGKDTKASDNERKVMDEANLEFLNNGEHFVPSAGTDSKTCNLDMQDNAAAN
Description: (§1) Generation, cultivation and characterization of human embryonic kidney (HEK) cells stably expressing OATP1B1 refseq (=OATP1B1*1a), OATP1B1*1b, OATP1B1*5 and OATP1B1*15 [18], OATP1B3 [19], OATP2B1 [13] and OCT1 [20] have been described previously. OATP1B1 cells were cultivated in minimal essential medium (Life Technologies, Paisley, UK) and OATP1B3, OATP2B1 and OCT1 cells were cultivated in Dulbecco’s modified Eagle medium (Sigma, Darmstadt, Germany). Cultivation media were supplemented with 10% fetal calf serum, 100 U/mL penicillin and 100 µg/mL streptomycin. Cells were grown at 37 °C and 5% CO2. Functionality of the cells was confirmed by measuring uptake of prototypic substrates (see Section 2.3 and supplementary material).
Prototypic substrate uptake was performed as described previously. For this, uptake solutions contained the respective substrate with tracer amounts of radiolabeled substrate. In case of inhibition studies, uptake solutions additionally contained different concentrations of remdesivir. […] Cells were then lysed with 0.2% sodium dodecyl sulfate and intracellular radioactivity was measured by liquid scintillation counting (Tricarb2800, PerkinElmer Life Sciences GmbH, Rodgau, Germany or Hidex 300SL TDCR liquid scintillation counter, Turku, Finland). […]

OCT1 = biological target: T2, OCT1 (Homo sapiens, UniProt O15245); test: Remdesivir uptake into HEK cells stably expressing OCT1 vs vector control; format: in vitro ADME; conditions: 5 µM remdesivir, 10 min, transporter-expressing vs control HEK cells
T2 construct: expressed in transfected cells
T2 sequence (O15245 1-554): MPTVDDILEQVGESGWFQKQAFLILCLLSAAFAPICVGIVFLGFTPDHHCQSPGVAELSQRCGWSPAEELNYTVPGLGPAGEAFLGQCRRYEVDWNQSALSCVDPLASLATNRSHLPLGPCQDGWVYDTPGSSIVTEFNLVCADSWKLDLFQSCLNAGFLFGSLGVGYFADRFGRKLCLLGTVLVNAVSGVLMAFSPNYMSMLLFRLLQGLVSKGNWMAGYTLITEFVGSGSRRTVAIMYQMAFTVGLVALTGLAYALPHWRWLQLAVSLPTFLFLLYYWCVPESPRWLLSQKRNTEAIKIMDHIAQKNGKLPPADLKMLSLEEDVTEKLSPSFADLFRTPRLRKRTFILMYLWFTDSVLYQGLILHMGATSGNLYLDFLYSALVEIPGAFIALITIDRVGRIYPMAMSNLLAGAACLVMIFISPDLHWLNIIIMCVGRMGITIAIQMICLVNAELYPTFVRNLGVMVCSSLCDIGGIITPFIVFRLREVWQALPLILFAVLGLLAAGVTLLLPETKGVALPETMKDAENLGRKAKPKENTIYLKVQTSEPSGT
Description: as §1
Uptake assays were conducted at 37 °C according to previously described methods. For this, cells were seeded in 24-well plates (320,000 cells/well) and cultured for 2 days. Cells were then incubated for a further 24 h in culture medium with 5 mM butyrate (OATP1B3, OATP2B1, OCT1) or 10 mM butyrate (OATP1B1) to increase protein levels of recombinant transporters. […]
Remdesivir was determined by UHPLC-MS-MS analysis on an Agilent 1290 infinity UHPLC system coupled to an Agilent 6495B triple quadrupole mass spectrometer (Agilent, Waldbronn, Germany) similar to a recently published method. […]

Compound: CCC(CC)COC(=O)[C@H](C)N[P@](=O)(OC[C@H]1O[C@@](C#N)(c2ccc3c(N)ncnn23)[C@H](O)[C@@H]1O)Oc1ccccc1 [Remdesivir]
- Effect on prototypic substrate uptake (OATP1B3; 5 µM estradiol glucuronide, 5 min uptake, different remdesivir concentrations): significant concentration-dependent inhibitory effect
- Transporter inhibition at 10 µM (OATP1B3; 10 µM remdesivir, estradiol glucuronide as substrate): inhibition
- Remdesivir uptake ratio (OCT1): 1.2
